Each compound was assayed against T1, RON tyrosine kinase (Homo sapiens, UniProt Q04912) (assay: Enzyme inhibitory activity against RON tyrosine kinase (TR-FRET)). Conditions: RON (Carna Bioscience).
T1 construct: purchased Carna Bioscience
T1 sequence (Q04912 25-1400): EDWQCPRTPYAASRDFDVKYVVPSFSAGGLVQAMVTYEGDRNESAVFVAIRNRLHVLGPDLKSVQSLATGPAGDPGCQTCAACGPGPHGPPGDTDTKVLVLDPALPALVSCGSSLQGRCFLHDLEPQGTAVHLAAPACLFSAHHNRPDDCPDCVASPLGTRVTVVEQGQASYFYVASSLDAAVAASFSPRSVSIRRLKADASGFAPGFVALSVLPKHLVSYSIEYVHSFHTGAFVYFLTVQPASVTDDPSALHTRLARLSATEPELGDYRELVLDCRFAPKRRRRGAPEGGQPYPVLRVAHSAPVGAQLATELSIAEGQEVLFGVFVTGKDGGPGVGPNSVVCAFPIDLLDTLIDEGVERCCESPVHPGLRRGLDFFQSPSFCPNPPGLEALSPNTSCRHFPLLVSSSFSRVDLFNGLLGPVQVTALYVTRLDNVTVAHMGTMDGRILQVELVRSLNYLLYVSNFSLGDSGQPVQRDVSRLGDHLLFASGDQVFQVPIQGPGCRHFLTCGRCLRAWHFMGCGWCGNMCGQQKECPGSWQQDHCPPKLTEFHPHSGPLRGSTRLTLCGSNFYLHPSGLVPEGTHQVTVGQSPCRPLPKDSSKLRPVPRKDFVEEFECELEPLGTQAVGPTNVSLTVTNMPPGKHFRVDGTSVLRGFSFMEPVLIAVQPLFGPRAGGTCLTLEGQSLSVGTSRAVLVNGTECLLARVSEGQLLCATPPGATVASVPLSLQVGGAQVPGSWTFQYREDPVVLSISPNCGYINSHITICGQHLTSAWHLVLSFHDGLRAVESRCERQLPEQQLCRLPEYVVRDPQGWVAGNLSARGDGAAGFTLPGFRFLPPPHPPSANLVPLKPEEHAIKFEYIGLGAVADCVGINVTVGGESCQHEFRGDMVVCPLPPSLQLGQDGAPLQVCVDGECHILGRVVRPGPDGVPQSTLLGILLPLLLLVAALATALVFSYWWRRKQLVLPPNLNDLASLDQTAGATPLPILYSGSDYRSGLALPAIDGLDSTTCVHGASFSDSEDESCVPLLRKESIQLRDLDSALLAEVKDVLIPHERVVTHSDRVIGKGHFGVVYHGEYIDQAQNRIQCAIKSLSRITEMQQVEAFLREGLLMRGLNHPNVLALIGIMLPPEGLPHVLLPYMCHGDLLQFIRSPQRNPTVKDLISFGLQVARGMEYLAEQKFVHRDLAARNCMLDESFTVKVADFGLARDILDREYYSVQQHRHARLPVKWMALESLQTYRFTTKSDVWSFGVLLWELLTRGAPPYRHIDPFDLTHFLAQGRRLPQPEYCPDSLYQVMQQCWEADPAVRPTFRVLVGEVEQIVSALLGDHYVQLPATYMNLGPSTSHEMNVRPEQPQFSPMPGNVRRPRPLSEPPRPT
Format: biochemical
Method: Experimental Example 1: Measurement of Enzyme Inhibitory Activity Against RON Tyrosine Kinase
To measure enzyme inhibitory activity of the example compounds against RON, IC50 values of the compounds were measured using fluorescence resonance energy transfer (FRET).
Specifically, first, RON (Carna Bioscience) was diluted in a kinase assay buffer (50 mM HEPES pH 7.5, 1 mM EGTA, 10 mM MgCl2, 2 mM DTT, and 0.01% Tween-20) to be at a concentration (0.4 nM) that is twice the final reaction concentration. The dilute was added to a 384-well-plate at 5 μl per well. Each of the example compounds was prepared at a concentration of 1 mM in 100% DMSO and diluted 8 times in a stepwise manner through 10-fold dilution. Each compound was diluted in a kinase assay buffer to be at a concentration that is 4 times the final reaction concentration. The dilute was added to a 384-well-plate at 2.5 μl per well, and incubation was performed at room temperature for 15 minutes.
Thereafter, an ATP solution (Sigma Aldrich) prepared at a concentration of 0.25 M was diluted in a kinase assay buffer to be at a concentration (60 μM) that is 4 times the final reaction concentration. Dilution of a tyrosine peptide substrate (Perkin-Elmer) was performed therein to be at a concentration (400 nM) that is 4 times the final reaction concentration. The dilute was added to a 384-well-plate at 2.5 µl per well. Reaction was allowed to proceed for 60 minutes by incubating the 384-well-plate at room temperature. Thereafter, EDTA (Sigma Aldrich) was diluted in a TR-FRET detection buffer (Perkin-Elmer) to be at a concentration (20 mM) that is twice the final reaction concentration. Dilution of a Europium-containing phosphotyrosine antibody (Perkin-Elmer) was performed in the diluted EDTA solution to be at a concentration (4 nM) that is twice the final reaction concentration, so that a stop solution for RON reaction was prepared.
The stop solution was added to the 384-well-plate at 10 μl per well to quench the reaction, and incubation was performed at room temperature for 60 minutes. Then, the 384-well-plate was read on a Victor X5 (Perkin-Elmer) plate reader. Here, the excitation wavelength was 340 nm, and the emission wavelengths were 620 nm and 665 nm. An IC50 value of the compound was derived using GraphPad Prism 5 program, in which the IC50 was derived by expressing emission energy at the wavelength of 665 nm as a function of the compound concentration.
An IC50 of 34.9 nM was found for `O=C(Nc1ccc(Oc2ccnc3cc(-c4ccc(CN5CCOCC5)cn4)sc23)c(F)c1)c1c2c(cn(-c3ccc(F)cc3)c1=O)CCC2` [Example 7] in this work.
An IC50 of 30 nM was found for `COc1cc2nccc(Oc3ccc(NC(=O)c4c5c(cn(-c6ccc(C(F)(F)F)cc6)c4=O)CCO5)cc3F)c2cc1OC` [Example 42, N-(4-((6,7-Dimethoxyquinolin-4-yl)oxy)-3-fluorophenyl)-6-oxo-5-(4-(trifluoromethyl)phenyl)-2,3,5,6-tetrahydrofuro[3,2-c]pyridine-7-carboxamide] in this work.
An IC50 of 5.13 nM was found for `COc1cc2nccc(Oc3ccc(NC(=O)c4c5c(cn(-c6cccc(F)c6)c4=O)CCO5)cc3F)c2cc1OC` [Example 43, N-(4-((6,7-Dimethoxyquinolin-4-yl)oxy)-3-fluorophenyl)-6-oxo-5-(3-fluorophenyl)-2,3,5,6-tetrahydrofuro[3,2-c]pyridine-7-carboxamide] in this work.
An IC50 greater than 1000 nM was found for `NC(=O)c1nccc(Oc2ccc(NC(=O)c3c4c(cn(-c5ccc(F)cc5)c3=O)CCO4)cc2F)c1Cl` [Example 54, N-(4-((2-Carbamoyl-3-chloropyridin-4-yl)oxy)-3-fluorophenyl)-5-(4-fluorophenyl)-6-oxo-2,3,5,6-tetrahydrofuro[3,2-c]pyridine-7-carboxamide] in this work.
An IC50 of 2.24 nM was found for `Nc1nccc(Oc2ccc(NC(=O)c3c4c(cn(-c5ccc(F)cc5)c3=O)CCO4)cc2F)c1Cl` [Example 55, N-(4-((2-Amino-3-chloropyridin-4-yl)oxy)-3-fluorophenyl)-5-(4-fluorophenyl)-6-oxo-2,3,5,6-tetrahydrofuro[3,2-c]pyridine-7-carboxamide] in this work.
An IC50 of 11.9 nM was found for `Nc1cc(Oc2ccc(NC(=O)c3c4c(cn(-c5ccc(F)cc5)c3=O)CCO4)cc2F)ccn1` [Example 56, N-(4-((2-Aminopyridin-4-yl)oxy)-3-fluorophenyl)-5-(4-fluorophenyl)-6-oxo-2,3,5,6-tetrahydrofuro[3,2-c]pyridine-7-carboxamide] in this work.
An IC50 of 18.2 nM was found for `Nc1nccc(Oc2ccc(NC(=O)c3c4c(cn(-c5ccc(F)cc5)c3=O)CCO4)cc2F)n1` [Example 57, N-(4-((2-Aminopyrimidin-4-yl)oxy)-3-fluorophenyl)-5-(4-fluorophenyl)-6-oxo-2,3,5,6-tetrahydrofuro[3,2-c]pyridine-7-carboxamide] in this work.
An IC50 of 25 nM was found for `Nc1cc(Oc2ccc(NC(=O)c3c4c(cn(-c5ccc(F)cc5)c3=O)CCO4)cc2F)ncn1` [Example 58, N-(4-((6-Aminopyrimidin-4-yl)oxy)-3-fluorophenyl)-5-(4-fluorophenyl)-6-oxo-2,3,5,6-tetrahydrofuro[3,2-c]pyridine-7-carboxamide] in this work.
An IC50 of 2.24 nM was found for `O=C(Nc1ccc(Oc2cc(NC3CCOCC3)ncn2)c(F)c1)c1c2c(cn(-c3ccc(F)cc3)c1=O)CCO2` [Example 59] in this work.
An IC50 of 13.1 nM was found for `O=C(Nc1ccc(Oc2ccnc(NC3CCOCC3)c2)c(F)c1)c1c2c(cn(-c3ccc(F)cc3)c1=O)CCO2` [Example 60, N-(3-Fluoro-4-((2-((tetrahydro-2H-pyran-4-yl)amino)pyridin-4-yl)oxy)phenyl)-5-(4-fluorophenyl)-6-oxo-2,3,5,6-tetrahydrofuro[3,2-c]pyridine-7-carboxamide] in this work.
An IC50 of 156 nM was found for `CN1CCC(Nc2cc(Oc3ccc(NC(=O)c4c5c(cn(-c6ccc(F)cc6)c4=O)CCO5)cc3F)ncn2)CC1` [Example 61, N-(3-Fluoro-4-((6-((1-methylpiperidin-4-yl)amino)pyrimidin-4-yl)oxy)phenyl)-5-(4-fluorophenyl)-6-oxo-2,3,5,6-tetrahydrofuro[3,2-c]pyridine-7-carboxamide] in this work.
An IC50 of 1.72 nM was found for `O=C(Nc1ccc(Oc2ccnc3[nH]ccc23)c(F)c1)c1c2c(cn(-c3ccc(F)cc3)c1=O)CCO2` [Example 65, N-(4-((1H-pyrrolo[2,3-b]pyridin-4-yl)oxy)-3-fluorophenyl)-5-(4-fluorophenyl)-6-oxo-2,3,5,6-tetrahydrofuro[3,2-c]pyridine-7-carboxamide] in this work.
An IC50 of 8.63 nM was found for `O=C(Nc1ccc(Oc2ccnc3[nH]cnc23)c(F)c1)c1c2c(cn(-c3ccc(F)cc3)c1=O)CCO2` [Example 66, N-(4-((3H-imidazo[4,5-b]pyridin-7-yl)oxy)-3-fluorophenyl)-5-(4-fluorophenyl)-6-oxo-2,3,5,6-tetrahydrofuro[3,2-c]pyridine-7-carboxamide] in this work.
An IC50 of 15 nM was found for `Cc1nc2c(Oc3ccc(NC(=O)c4c5c(cn(-c6ccc(F)cc6)c4=O)CCO5)cc3F)ccnc2[nH]1` [Example 67, N-(3-Fluoro-4-((2-methyl-3H-imidazo[4,5-b]pyridin-7-yl)oxy)phenyl)-5-(4-fluorophenyl)-6-oxo-2,3,5,6-tetrahydrofuro[3,2-c]pyridine-7-carboxamide] in this work.
An IC50 of 1.57 nM was found for `O=C(Nc1ccc(Oc2ccnc3[nH]ncc23)c(F)c1)c1c2c(cn(-c3ccc(F)cc3)c1=O)CCO2` [Example 68, N-(4-((1H-pyrazolo[3,4-b]pyridin-4-yl)oxy)-3-fluorophenyl)-5-(4-fluorophenyl)-6-oxo-2,3,5,6-tetrahydrofuro[3,2-c]pyridine-7-carboxamide] in this work.
An IC50 of 3.29 nM was found for `O=C(Nc1ccc(Oc2ccnc3ccoc23)c(F)c1)c1c2c(cn(-c3ccc(F)cc3)c1=O)CCO2` [Example 69, N-(3-Fluoro-4-((furo[3,2-b]pyridin-7-yl)oxy)phenyl)-5-(4-fluorophenyl)-6-oxo-2,3,5,6-tetrahydrofuro[3,2-c]pyridine-7-carboxamide] in this work.
An IC50 of 3.66 nM was found for `Cc1cc2c(Oc3ccc(NC(=O)c4c5c(cn(-c6ccc(F)cc6)c4=O)CCO5)cc3F)ccnc2[nH]1` [Example 70, N-(3-Fluoro-4-((2-methyl-1H-pyrrolo[2,3-b]pyridin-4-yl)oxy)-3-fluorophenyl)-5-(4-fluorophenyl)-6-oxo-2,3,5,6-tetrahydrofuro[3,2-c]pyridine-7-carboxamide] in this work.
An IC50 of 46.2 nM was found for `O=C(Nc1ccc(Oc2ncnc3[nH]cnc23)c(F)c1)c1c2c(cn(-c3ccc(F)cc3)c1=O)CCO2` [Example 72, N-(4-((9H-purin-6-yl)oxy)-3-fluorophenyl)-5-(4-fluorophenyl)-6-oxo-2,3,5,6-tetrahydrofuro[3,2-c]pyridine-7-carboxamide] in this work.
An IC50 of 9.75 nM was found for `O=C(Nc1ccc(Oc2ncnc3c2CCN3)c(F)c1)c1c2c(cn(-c3ccc(F)cc3)c1=O)CCO2` [Example 74, N-(4-((6,7-Dihydro-5H-pyrrolo[2,3-d]pyrimidin-4-yl)oxy)-3-fluorophenyl)-5-(4-fluorophenyl)-6-oxo-2,3,5,6-tetrahydrofuro[3,2-c]pyridine-7-carboxamide] in this work.
An IC50 of 2800 nM was found for `O=C(Nc1ccc(Oc2ccnc3ccnn23)c(F)c1)c1c2c(cn(-c3ccc(F)cc3)c1=O)CCO2` [Example 75, N-(3-Fluoro-4-(pyrazolo[1,5-a]pyrimidin-7-yloxy)phenyl)-5-(4-fluorophenyl)-6-oxo-2,3,5,6-tetrahydro[3,2-c]pyridine-7-carboxamide] in this work.
An IC50 of 1.32 nM was found for `O=C(Nc1ccc(Oc2ccnc3cc(OCCN4CCOCC4)ccc23)c(F)c1)c1c2c(cn(-c3ccc(F)cc3)c1=O)CCO2` [Example 157, N-(3-Fluoro-4-((7-(2-morpholinylethoxy)quinolin-4-yl)oxy)phenyl)-5-(4-fluorophenyl)-6-oxo-2,3,5,6-tetrahydrofuro[3,2-c]pyridine-7-carboxamide] in this work.
An IC50 of 11.9 nM was found for `O=C(Nc1ccc(Oc2ccnc3cc(OCCCN4CCOCC4)ccc23)c(F)c1)c1c2c(cn(-c3ccc(F)cc3)c1=O)CCC2` [Example 159, N-(3-Fluoro-4-((7-(3-morpholinopropoxy)quinolin-4-yl)oxy)phenyl)-2-(4-fluorophenyl)-3-oxo-3,5,6,7-tetrahydro-2H-cyclopenta[c]pyridine-4-carboxamide] in this work.

— patent US20220235064A1 (WELLMARKER BIO CO., LTD., priority 2019, published 2022)
